From paper PMC10247784, “Physiological activation of human and mouse bitter taste receptors by bile acids” (Communications Biology, 2023)

Test system: HEK293T-Gα16gust44 cells transfected with empty vector (mock)
Test: Calcium imaging assay (FLIPR), empty vector control (mock)
Type: cell-based
Protocol: This set of bile acids was chosen because of their commercial availability in high purities, their diversity within the class of bile acids and their previous detection and quantitation in human blood. Stock solutions were prepared in DMSO.
As basal growth medium for the HEK293T-Gα16gust44 cell line[17],[59] served Dulbecco’s modified eagle medium (DMEM) (Thermo Fisher Scientific, Darmstadt, Germany) supplemented with 10 % fetal bovine serum (Sigma-Aldrich, Steinheim, Germany), 2 mM L-glutamine (Sigma-Aldrich, Steinheim, Germany), 100 units/ml penicillin (Sigma Aldrich, Steinheim, Germany) and 100 µg/ml streptomycin (Sigma Aldrich, Steinheim, Germany). Growth conditions were 37 °C, 5 % CO2 and saturated air-humidity[60].
HEK293T-Gα16gust44 cells were seeded on poly-D-lysine (10 µg/ml) coated 96-well plates to reach a confluence of 40-60 % the next day. For transient transfection 150 ng of plasmid DNA containing the receptor of interest and 0.3 µl lipofectamine 2000 (Thermo Fisher Scientific, Darmstadt, Germany) per well were used and transfection took place according to the manual of lipofectamine 2000. […] The empty vector DNA (mock) was transfected as negative control[14],[41].
Cells were loaded using the calcium-sensitive fluorescent dye Fluo-4-AM (Abcam, Cambridge, Great Britain) in the presence of 2.5 mM probenecid (Sigma-Aldrich, Steinheim, Germany) the day after transfection[13],[41]. 1 h after loading, cells were washed with C1 buffer using a BioTek Cell Washer, incubated in the dark for half an hour and washed again. For automated agonist application and measurement of fluorescence changes, a FLIPR^TETRA device (Molecular Devices, San José, United States) was used. Viability of cells was tested by application of 100 nM Somatostatin 14 (Bachem, Bubendorf, Switzerland)[42].
Measured data were negative control corrected by subtracting the signal of the mock-transfected cells and exported to Microsoft Excel using the FLIPR software ScreenWorks 4.2. In Microsoft Excel software, standardization of maximum fluorescence intensities to the basal fluorescence and normalization to the buffer-only control was done to calculate the relative fluorescence changes (ΔF/F).
Initial screening experiments performed in duplicate wells were confirmed by at least one replication and representative traces were selected for display. All dose-response relationships were determined by three independent experiments (biological replicates) performed in duplicates (technical replicates). Threshold concentrations, defined as lowest substance concentrations leading to statistically significant elevated fluorescence changes in receptor-transfected cells compared with empty vector-transfected cells, were determined using SigmaPlot with Student’s t-test to evaluate statistical significance (p < 0.01).

[1] = Mock (sheet Tas2r123), conc. 0,01 mM
[2] = Mock (sheet Tas2r123), conc. 0,03 mM
[3] = Mock (sheet Tas2r123), conc. 0,001 mM
[4] = Mock (sheet Tas2r123), conc. 0,003 mM
[5] = Mock, sheet TAS2R4, conc. 0,01 mM
[6] = Mock, sheet TAS2R4, conc. 0,03 mM
[7] = Mock, sheet TAS2R4, conc. 0,001 mM
[8] = Mock, sheet TAS2R4, conc. 0,003 mM
[9] = conc. 0,01 mM, Mock (sheet TAS2R1)
[10] = conc. 0,03 mM, Mock (sheet TAS2R1)
[11] = conc. 0,001 mM, Mock (sheet TAS2R1)
[12] = conc. 0,003 mM, Mock (sheet TAS2R1)

For `C[C@H](CCC(=O)NCCS(=O)(=O)O)[C@H]1CC[C@H]2[C@@H]3[C@H](O)C[C@@H]4C[C@H](O)CC[C@]4(C)[C@H]3C[C@H](O)[C@]12C` [Taurocholic Acid, taurocholic acid], the “Δ F/F” value (Conc. 0,01 mM, Mock (sheet TAS2R39)) was -0.01563, the “Δ F/F” value (Conc. 0,1 mM, Mock (sheet TAS2R39)) was -0.02822 and the “Δ F/F” value (Conc. 0,03 mM, Mock (sheet TAS2R39)) was -0.0235. The “Δ F/F” value (Conc. 0,3 mM, Mock (sheet TAS2R39)) was -0.04268, the “Δ F/F” value (Conc. 0,001 mM, Mock (sheet TAS2R39)) was -0.0133 and the “Δ F/F” value (Conc. 1 mM, Mock (sheet TAS2R39)) was -0.07998. For the same compound, the “Δ F/F” value (Conc. 0,003 mM, Mock (sheet TAS2R39)) was -0.01654, the “Δ F/F” value [1] was -0.001211 and the “Δ F/F” value (Mock (sheet Tas2r123), conc. 0,1 mM) was -8.418e-5. For the same compound, the “Δ F/F” value [2] was -0.0003225, the “Δ F/F” value (Mock (sheet Tas2r123), conc. 0,3 mM) was -0.001149 and the “Δ F/F” value [3] was -0.001993. For the same compound, the “Δ F/F” value [4] was -0.001321, the “Δ F/F” value (Mock (sheet Tas2r144), conc. 0,01 mM) was 0.001108 and the “Δ F/F” value (Mock (sheet Tas2r144), conc. 0,1 mM) was 0.003486. The “Δ F/F” value (Mock (sheet Tas2r144), conc. 0,03 mM) was 0.0001367, the “Δ F/F” value (Mock (sheet Tas2r144), conc. 0,3 mM) was -0.000351 and the “Δ F/F” value (Mock (sheet Tas2r144), conc. 0,003 mM) was -0.001298. For the same compound, the “Δ F/F” value [5] was -0.0002235, the “Δ F/F” value (Mock, sheet TAS2R4, conc. 0,1 mM) was -0.0008729 and the “Δ F/F” value [6] was 6.044e-5. The “Δ F/F” value (Mock, sheet TAS2R4, conc. 0,3 mM) was 0.0004439, the “Δ F/F” value [7] was -0.0007938 and the “Δ F/F” value [8] was -0.0007144. The “Δ F/F” value (Mock, sheet TAS2R14, conc. 0,01 mM) was -0.01747, the “Δ F/F” value (Mock, sheet TAS2R14, conc. 0,1 mM) was -0.02159 and the “Δ F/F” value (Mock, sheet TAS2R14, conc. 0,03 mM) was -0.01682. The “Δ F/F” value (Mock, sheet TAS2R14, conc. 0,3 mM) was -0.04976, the “Δ F/F” value (Mock, sheet TAS2R14, conc. 0,001 mM) was -0.01145 and the “Δ F/F” value (Mock, sheet TAS2R14, conc. 1 mM) was -0.08511. For the same compound, the “Δ F/F” value (Mock, sheet TAS2R14, conc. 0,003 mM) was -0.01455, the “Δ F/F” value (Mock, sheet TAS2R46, conc. 0,01 mM) was -0.0238 and the “Δ F/F” value (Mock, sheet TAS2R46, conc. 0,1 mM) was -0.03213. For the same compound, the “Δ F/F” value (Mock, sheet TAS2R46, conc. 0,03 mM) was -0.02754, the “Δ F/F” value (Mock, sheet TAS2R46, conc. 0,3 mM) was -0.04297 and the “Δ F/F” value (Mock, sheet TAS2R46, conc. 0,001 mM) was -0.01362. The “Δ F/F” value (Mock, sheet TAS2R46, conc. 1 mM) was -0.07821, the “Δ F/F” value (Mock, sheet TAS2R46, conc. 0,003 mM) was -0.02261 and the “Δ F/F” value (Mock, sheet Tas2r108, conc. 0,01 mM) was -0.02048. The “Δ F/F” value (Mock, sheet Tas2r108, conc. 0,1 mM) was -0.02439, the “Δ F/F” value (Mock, sheet Tas2r108, conc. 0,03 mM) was -0.01669 and the “Δ F/F” value (Mock, sheet Tas2r108, conc. 0,3 mM) was -0.04405. The “Δ F/F” value (Mock, sheet Tas2r108, conc. 0,001 mM) was -0.01481, the “Δ F/F” value (Mock, sheet Tas2r108, conc. 1 mM) was -0.07176 and the “Δ F/F” value (Mock, sheet Tas2r108, conc. 0,003 mM) was -0.01975. The “Δ F/F” value (Mock, sheet Tas2r117, conc. 0,01 mM) was 0.0004005, the “Δ F/F” value (Mock, sheet Tas2r117, conc. 0,1 mM) was 0.0008049 and the “Δ F/F” value (Mock, sheet Tas2r117, conc. 0,03 mM) was 0.000104. The “Δ F/F” value (Mock, sheet Tas2r117, conc. 0,3 mM) was -0.0008737, the “Δ F/F” value (Mock, sheet Tas2r117, conc. 0,0003 mM) was -0.0001935 and the “Δ F/F” value (Mock, sheet Tas2r117, conc. 0,001 mM) was -0.001035. For the same compound, the “Δ F/F” value (Mock, sheet Tas2r117, conc. 0,003 mM) was -0.0005321, the “Δ F/F” value [9] was -0.002439 and the “Δ F/F” value (conc. 0,1 mM, Mock (sheet TAS2R1)) was -0.002601. For the same compound, the “Δ F/F” value [10] was -0.002464, the “Δ F/F” value (conc. 0,3 mM, Mock (sheet TAS2R1)) was -0.001298 and the “Δ F/F” value [11] was -0.001546. The “Δ F/F” value [12] was -0.002596.

With `C[C@H](CCC(=O)O)[C@H]1CC[C@H]2[C@@H]3[C@@H](O)C[C@@H]4C[C@H](O)CC[C@]4(C)[C@H]3CC[C@]12C` [Ursodeoxycholic Acid, ursodeoxycholic acid] the “Δ F/F” value [1] was -0.001066, the “Δ F/F” value [2] was -0.001504 and the “Δ F/F” value (Mock (sheet Tas2r123), conc. 0,0001 mM) was -0.001573. For the same compound, the “Δ F/F” value (Mock (sheet Tas2r123), conc. 0,0003 mM) was -0.001292, the “Δ F/F” value [3] was -0.005211 and the “Δ F/F” value [4] was -0.001793. The “Δ F/F” value [5] was -0.0004613, the “Δ F/F” value [6] was -0.0005491 and the “Δ F/F” value (Mock, sheet TAS2R4, conc. 0,00003 mM) was -0.0004806. The “Δ F/F” value (Mock, sheet TAS2R4, conc. 0,0001 mM) was -0.001738, the “Δ F/F” value (Mock, sheet TAS2R4, conc. 0,0003 mM) was 0.0005593 and the “Δ F/F” value [7] was -0.001147. For the same compound, the “Δ F/F” value [8] was -0.0007234, the “Δ F/F” value [9] was 0.000483 and the “Δ F/F” value [10] was -0.001233. For the same compound, the “Δ F/F” value (conc. 0,0001 mM, Mock (sheet TAS2R1)) was 0.0008084, the “Δ F/F” value (conc. 0,0003 mM, Mock (sheet TAS2R1)) was -0.0004379 and the “Δ F/F” value [11] was -0.001051. For the same compound, the “Δ F/F” value [12] was -0.001084.
